Measured values reported in ChEMBL document CHEMBL1126045, “Alanine series of ovine corticotropin releasing factor (oCRF): a structure-activity relationship study” (J Med Chem, 1992).

Assays:
Assay type in all cases: cell-based
Parameters in all cases: unit not given here
[1] = target: Corticotropin releasing factor receptor (Rattus norvegicus) (UniProt P47866+P35353); assay: In vitro ability (peptide) to stimulate ACTH release by rat anterior pituitary cells relative to Ovine corticotropin releasing factor (oCRF).; details: Pituitary gland cell
Pituitary gland cell [2] = assay: In vitro ability of the compound (peptide) to stimulate ACTH release by rat anterior pituitary cells in relative to Ovine corticotropin releasing factor (oCRF) in experiment 1
Pituitary gland cell [3] = assay: In vitro ability of the compound (peptide) to stimulate ACTH release by rat anterior pituitary cells in relative to Ovine corticotropin releasing factor (oCRF) in experiment 2

Corticotropin releasing factor receptor (Rattus norvegicus), sequence (P35353 whole entry, looked up): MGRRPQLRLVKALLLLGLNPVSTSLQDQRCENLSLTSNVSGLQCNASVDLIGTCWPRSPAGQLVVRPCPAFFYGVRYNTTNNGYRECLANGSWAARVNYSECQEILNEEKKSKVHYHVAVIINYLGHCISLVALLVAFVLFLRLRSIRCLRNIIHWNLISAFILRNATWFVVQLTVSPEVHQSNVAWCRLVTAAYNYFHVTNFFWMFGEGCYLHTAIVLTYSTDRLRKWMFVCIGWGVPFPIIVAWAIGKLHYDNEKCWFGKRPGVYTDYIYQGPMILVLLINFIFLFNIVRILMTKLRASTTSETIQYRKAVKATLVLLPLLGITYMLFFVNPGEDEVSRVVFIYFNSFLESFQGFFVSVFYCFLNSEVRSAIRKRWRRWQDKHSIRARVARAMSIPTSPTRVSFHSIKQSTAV
Corticotropin releasing factor receptor (Rattus norvegicus), sequence (P47866 whole entry, looked up): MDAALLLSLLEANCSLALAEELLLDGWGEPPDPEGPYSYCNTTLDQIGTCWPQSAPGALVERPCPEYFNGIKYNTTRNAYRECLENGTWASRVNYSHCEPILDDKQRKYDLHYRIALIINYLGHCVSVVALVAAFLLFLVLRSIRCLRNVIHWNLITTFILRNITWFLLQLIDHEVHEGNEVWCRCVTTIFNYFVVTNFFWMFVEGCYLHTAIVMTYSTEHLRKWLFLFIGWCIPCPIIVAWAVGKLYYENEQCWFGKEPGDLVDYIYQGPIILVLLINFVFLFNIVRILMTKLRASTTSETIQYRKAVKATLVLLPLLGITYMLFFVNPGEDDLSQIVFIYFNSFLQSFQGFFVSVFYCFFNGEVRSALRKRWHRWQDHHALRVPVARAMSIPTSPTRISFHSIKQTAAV

## H-SQEPPISLDLTFHLLREVLEMTKADQLAQQAASNRKLLDIA-NH2
[1]
  Relative potency: 4.5

## H-SQEPPISLDLTFHLLREVLEMTKADQLAQQAHANRKLLDIA-NH2
[1]
  Relative potency: 2

## H-SQEPPISLDLTFHLLREVLEMTKADQLAAQAHSNRKLLDIA-NH2
Pituitary gland cell [2]
  Relative potency: 1
Pituitary gland cell [3]
  Relative potency: 1.4

## H-SQEPPISLDLTFHLLREVLEMTKADQLAQQAHSNRKALDIA-NH2
[1]
  Relative potency: 0.7

## CC[C@H](C)[C@H](NC(=O)[C@H](CC(=O)O)NC(=O)[C@H](CC(C)C)NC(=O)[C@H](CC(C)C)NC(=O)[C@H](CCCCN)NC(=O)[C@H](CCCN=C(N)N)NC(=O)[C@H](CC(N)=O)NC(=O)[C@H](CO)NC(=O)[C@H](Cc1c[nH]cn1)NC(=O)[C@H](C)NC(=O)[C@H](CCC(N)=O)NC(=O)[C@H](CCC(N)=O)NC(=O)[C@H](C)NC(=O)[C@H](CC(C)C)NC(=O)[C@H](CCC(N)=O)NC(=O)[C@H](CC(=O)O)NC(=O)[C@H](C)NC(=O)[C@H](CCCCN)NC(=O)[C@@H](NC(=O)[C@H](CCSC)NC(=O)[C@H](CCC(=O)O)NC(=O)[C@H](CC(C)C)NC(=O)[C@@H](NC(=O)[C@H](CCC(=O)O)NC(=O)[C@H](CCCN=C(N)N)NC(=O)[C@H](CC(C)C)NC(=O)[C@H](CC(C)C)NC(=O)[C@H](Cc1c[nH]cn1)NC(=O)[C@H](Cc1ccccc1)NC(=O)[C@H](C)NC(=O)[C@H](CC(C)C)NC(=O)[C@H](CC(=O)O)NC(=O)[C@H](CC(C)C)NC(=O)[C@H](CO)NC(=O)[C@@H](NC(=O)[C@@H]1CCCN1C(=O)[C@@H]1CCCN1C(=O)[C@H](CCC(=O)O)NC(=O)[C@H](CCC(N)=O)NC(=O)[C@@H](N)CO)[C@@H](C)CC)C(C)C)[C@@H](C)O)C(=O)N[C@@H](C)C(N)=O
[1]
  Relative potency: 0.4

## H-SQEPPISLDLTFHLLREVLEATKADQLAQQAHSNRKLLDIA-NH2
[1]
  Relative potency: 0.4

## CC[C@H](C)[C@H](NC(=O)[C@H](CC(=O)O)NC(=O)[C@H](CC(C)C)NC(=O)[C@H](CC(C)C)NC(=O)[C@H](CCCCN)NC(=O)[C@H](CCCNC(=N)N)NC(=O)[C@H](CC(N)=O)NC(=O)[C@H](CO)NC(=O)[C@H](Cc1cnc[nH]1)NC(=O)[C@H](C)NC(=O)[C@H](CCC(N)=O)NC(=O)[C@H](CCC(N)=O)NC(=O)[C@H](C)NC(=O)[C@H](CC(C)C)NC(=O)[C@H](CCC(N)=O)NC(=O)[C@H](CC(=O)O)NC(=O)[C@H](C)NC(=O)[C@H](CCCCN)NC(=O)[C@@H](NC(=O)[C@H](CCSC)NC(=O)[C@H](CCC(=O)O)NC(=O)[C@H](CC(C)C)NC(=O)[C@@H](NC(=O)[C@H](CCC(=O)O)NC(=O)[C@H](CCCNC(=N)N)NC(=O)[C@H](CC(C)C)NC(=O)[C@H](CC(C)C)NC(=O)[C@H](Cc1cnc[nH]1)NC(=O)[C@H](Cc1ccccc1)NC(=O)[C@@H](NC(=O)[C@H](CC(C)C)NC(=O)[C@H](CC(=O)O)NC(=O)[C@H](CC(C)C)NC(=O)[C@H](CO)NC(=O)[C@@H](NC(=O)[C@@H]1CCCN1C(=O)[C@@H]1CCCN1C(=O)[C@H](CCC(=O)O)NC(=O)[C@H](CCC(N)=O)NC(=O)[C@@H](N)CO)[C@@H](C)CC)[C@@H](C)O)C(C)C)[C@@H](C)O)C(=O)N[C@@H](C)C(N)=O
[1]
  Relative potency: 1

## H-SQEPPISLDLTAHLLREVLEMTKADQLAQQAHSNRKLLDIA-NH2
[1]
  Relative potency: 0.006

## H-SQEPPISLDLTFHLLREVLEMTAADQLAQQAHSNRKLLDIA-NH2
[1]
  Relative potency: 0.28

## H-SQEPPISLDLTFHLAREVLEMTKADQLAQQAHSNRKLLDIA-NH2
[1]
  Relative potency: 0.09

## CC[C@H](C)[C@H](NC(=O)[C@H](CC(=O)O)NC(=O)[C@H](CC(C)C)NC(=O)[C@H](CC(C)C)NC(=O)[C@H](CCCCN)NC(=O)[C@H](CCCN=C(N)N)NC(=O)[C@H](CC(N)=O)NC(=O)[C@H](CO)NC(=O)[C@H](Cc1c[nH]cn1)NC(=O)[C@H](C)NC(=O)[C@H](CCC(N)=O)NC(=O)[C@H](CCC(N)=O)NC(=O)[C@H](C)NC(=O)[C@H](CC(C)C)NC(=O)[C@H](CCC(N)=O)NC(=O)[C@H](CC(=O)O)NC(=O)[C@H](C)NC(=O)[C@H](CCCCN)NC(=O)[C@@H](NC(=O)[C@H](CCSC)NC(=O)[C@H](CCC(=O)O)NC(=O)[C@H](CC(C)C)NC(=O)[C@@H](NC(=O)[C@H](CCC(=O)O)NC(=O)[C@H](CCCN=C(N)N)NC(=O)[C@H](CC(C)C)NC(=O)[C@H](CC(C)C)NC(=O)[C@H](Cc1c[nH]cn1)NC(=O)[C@H](Cc1ccccc1)NC(=O)[C@@H](NC(=O)[C@H](C)NC(=O)[C@H](CC(=O)O)NC(=O)[C@H](CC(C)C)NC(=O)[C@H](CO)NC(=O)[C@@H](NC(=O)[C@@H]1CCCN1C(=O)[C@@H]1CCCN1C(=O)[C@H](CCC(=O)O)NC(=O)[C@H](CCC(N)=O)NC(=O)[C@@H](N)CO)[C@@H](C)CC)[C@@H](C)O)C(C)C)[C@@H](C)O)C(=O)N[C@@H](C)C(N)=O
[1]
  Relative potency: 0.006

## H-SQEPPISLDLTFHLLREALEMTKADQLAQQAHSNRKLLDIA-NH2
[1]
  Relative potency: 0.5

## H-SQEPPISLDLTFHLLREVLEMAKADQLAQQAHSNRKLLDIA-NH2
[1]
  Relative potency: 3.4

## H-SQEPPISLDLTFHLLREVLEMTKADQLAQQAHSARKLLDIA-NH2
[1]
  Relative potency: 1.1

## H-SQEPPISLDLTFHLLREVLEMTKADQLAQQAHSNRKLADIA-NH2
Pituitary gland cell [2]
  Relative potency: 0.004
Pituitary gland cell [3]
  Relative potency: 0.0002

## CC[C@H](C)[C@H](NC(=O)[C@H](C)NC(=O)[C@@H]1CCCN1C(=O)[C@H](CCC(=O)O)NC(=O)[C@H](CCC(N)=O)NC(=O)[C@@H](N)CO)C(=O)N[C@@H](CO)C(=O)N[C@@H](CC(C)C)C(=O)N[C@@H](CC(=O)O)C(=O)N[C@@H](CC(C)C)C(=O)N[C@H](C(=O)N[C@@H](Cc1ccccc1)C(=O)N[C@@H](Cc1c[nH]cn1)C(=O)N[C@@H](CC(C)C)C(=O)N[C@@H](CC(C)C)C(=O)N[C@@H](CCCN=C(N)N)C(=O)N[C@@H](CCC(=O)O)C(=O)N[C@H](C(=O)N[C@@H](CC(C)C)C(=O)N[C@@H](CCC(=O)O)C(=O)N[C@@H](CCSC)C(=O)N[C@H](C(=O)N[C@@H](CCCCN)C(=O)N[C@@H](C)C(=O)N[C@@H](CC(=O)O)C(=O)N[C@@H](CCC(N)=O)C(=O)N[C@@H](CC(C)C)C(=O)N[C@@H](C)C(=O)N[C@@H](CCC(N)=O)C(=O)N[C@@H](CCC(N)=O)C(=O)N[C@@H](C)C(=O)N[C@@H](Cc1c[nH]cn1)C(=O)N[C@@H](CO)C(=O)N[C@@H](CC(N)=O)C(=O)N[C@@H](CCCN=C(N)N)C(=O)N[C@@H](CCCCN)C(=O)N[C@@H](CC(C)C)C(=O)N[C@@H](CC(C)C)C(=O)N[C@@H](CC(=O)O)C(=O)N[C@H](C(=O)N[C@@H](C)C(N)=O)[C@@H](C)CC)[C@@H](C)O)C(C)C)[C@@H](C)O
[1]
  Relative potency: 0.6

## H-SQEPPISLDLTFHLLREVLEMTKADQLAQQAHSNRKLLDAA-NH2
[1]
  Relative potency: 1.7

## H-SQEPPISLDLTFHLLREVLEMTKADQLAQQAHSNRKLLAIA-NH2
[1]
  Relative potency: 1.8

## H-SQEPPISLDLTFHLLREVLEMTKADALAQQAHSNRKLLDIA-NH2
[1]
  Relative potency: 1.1

## H-SQEPPISLDLTFHLLREVLEMTKADQLAQQAHSNAKLLDIA-NH2
[1]
  Relative potency: 0.02

## H-SQEPPISLDLTFHLLREVAEMTKADQLAQQAHSNRKLLDIA-NH2
[1]
  Relative potency: 0.09

## H-SQEPPISLDLTFHLLREVLEMTKADQLAQAAHSNRKLLDIA-NH2
[1]
  Relative potency: 0.8

## H-SQEPPISLDLTFHLLREVLEMTKADQLAQQAHSNRALLDIA-NH2
[1]
  Relative potency: 0.8

## H-SQEPPISLDLTFHLLRAVLEMTKADQLAQQAHSNRKLLDIA-NH2
[1]
  Relative potency: 0.6

## H-SQEPPISLDLTFHLLREVLEMTKAAQLAQQAHSNRKLLDIA-NH2
[1]
  Relative potency: 1.7

## H-SQEPPISLDLTFHLLAEVLEMTKADQLAQQAHSNRKLLDIA-NH2
[1]
  Relative potency: 0.02

## CC[C@H](C)[C@H](NC(=O)[C@H](CC(=O)O)NC(=O)[C@H](CC(C)C)NC(=O)[C@H](CC(C)C)NC(=O)[C@H](CCCCN)NC(=O)[C@H](CCCN=C(N)N)NC(=O)[C@H](CC(N)=O)NC(=O)[C@H](CO)NC(=O)[C@H](Cc1c[nH]cn1)NC(=O)[C@H](C)NC(=O)[C@H](CCC(N)=O)NC(=O)[C@H](CCC(N)=O)NC(=O)[C@H](C)NC(=O)[C@H](CC(C)C)NC(=O)[C@H](CCC(N)=O)NC(=O)[C@H](CC(=O)O)NC(=O)[C@H](C)NC(=O)[C@H](CCCCN)NC(=O)[C@@H](NC(=O)[C@H](CCSC)NC(=O)[C@H](CCC(=O)O)NC(=O)[C@H](CC(C)C)NC(=O)[C@@H](NC(=O)[C@H](CCC(=O)O)NC(=O)[C@H](CCCN=C(N)N)NC(=O)[C@H](CC(C)C)NC(=O)[C@H](CC(C)C)NC(=O)[C@H](Cc1c[nH]cn1)NC(=O)[C@H](Cc1ccccc1)NC(=O)[C@@H](NC(=O)[C@H](CC(C)C)NC(=O)[C@H](C)NC(=O)[C@H](CC(C)C)NC(=O)[C@H](CO)NC(=O)[C@@H](NC(=O)[C@@H]1CCCN1C(=O)[C@@H]1CCCN1C(=O)[C@H](CCC(=O)O)NC(=O)[C@H](CCC(N)=O)NC(=O)[C@@H](N)CO)[C@@H](C)CC)[C@@H](C)O)C(C)C)[C@@H](C)O)C(=O)N[C@@H](C)C(N)=O
[1]
  Relative potency: 0.004

## H-SQEPPISLDLTFALLREVLEMTKADQLAQQAHSNRKLLDIA-NH2
[1]
  Relative potency: 0.14

## CC[C@H](C)[C@H](NC(=O)[C@H](CC(=O)O)NC(=O)[C@H](CC(C)C)NC(=O)[C@H](CC(C)C)NC(=O)[C@H](CCCCN)NC(=O)[C@H](CCCN=C(N)N)NC(=O)[C@H](CC(N)=O)NC(=O)[C@H](CO)NC(=O)[C@H](Cc1c[nH]cn1)NC(=O)[C@H](C)NC(=O)[C@H](CCC(N)=O)NC(=O)[C@H](CCC(N)=O)NC(=O)[C@H](C)NC(=O)[C@H](CC(C)C)NC(=O)[C@H](CCC(N)=O)NC(=O)[C@H](CC(=O)O)NC(=O)[C@H](C)NC(=O)[C@H](CCCCN)NC(=O)[C@@H](NC(=O)[C@H](CCSC)NC(=O)[C@H](CCC(=O)O)NC(=O)[C@H](CC(C)C)NC(=O)[C@@H](NC(=O)[C@H](CCC(=O)O)NC(=O)[C@H](CCCN=C(N)N)NC(=O)[C@H](CC(C)C)NC(=O)[C@H](CC(C)C)NC(=O)[C@H](Cc1c[nH]cn1)NC(=O)[C@H](Cc1ccccc1)NC(=O)[C@@H](NC(=O)[C@H](CC(C)C)NC(=O)[C@H](CC(=O)O)NC(=O)[C@H](CC(C)C)NC(=O)[C@H](CO)NC(=O)[C@H](C)NC(=O)[C@@H]1CCCN1C(=O)[C@@H]1CCCN1C(=O)[C@H](CCC(=O)O)NC(=O)[C@H](CCC(N)=O)NC(=O)[C@@H](N)CO)[C@@H](C)O)C(C)C)[C@@H](C)O)C(=O)N[C@@H](C)C(N)=O
[1]
  Relative potency: 0.004
